Reference: patent US8846750B2, “Pharmaceutical and food compositions for preventing or treating diabetes or obesity” (Korea Ocean Research and Development Institute, priority 2010, dated 2014)

Key:
TC-PTP (PTPN2) = target: T1, TC-PTP (PTPN2) (Homo sapiens, UniProt P17706); experiment: Selectivity for protein tyrosine phosphatases: TC-PTP (PTPN2); format: biochemical; conditions: 0, 50, 100 or 200 nM tested
T1 construct: purchased Bioneer, Korea
T1 sequence (P17706 1-415): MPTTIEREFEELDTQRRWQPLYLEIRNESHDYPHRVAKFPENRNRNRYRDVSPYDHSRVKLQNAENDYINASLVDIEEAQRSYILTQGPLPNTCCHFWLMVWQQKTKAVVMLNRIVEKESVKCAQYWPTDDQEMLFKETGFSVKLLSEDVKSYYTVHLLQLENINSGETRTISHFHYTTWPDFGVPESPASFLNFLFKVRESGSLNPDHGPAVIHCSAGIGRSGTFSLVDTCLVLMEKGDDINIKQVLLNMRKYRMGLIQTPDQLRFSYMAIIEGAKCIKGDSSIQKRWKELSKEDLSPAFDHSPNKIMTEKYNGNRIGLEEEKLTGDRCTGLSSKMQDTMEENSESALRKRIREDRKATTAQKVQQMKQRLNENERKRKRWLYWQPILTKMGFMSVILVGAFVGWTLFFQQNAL
Procedure: In order to examine the selectivity of sodium lobarate for protein tyrosine phosphatases, the inhibitory activities of sodium lobarate against PTP-1b, PTPN2, PTPN5, PTPN6, PTPN7 and PTPN13 were examined by spectroscopically measuring the activities of the enzymes.
Specifically, to 0.5 mg/Ml of PTP-1b, PTPN2, PTPN5, PTPN6, PTPN7 or PTPN13 (Bioneer, Korea) in protein tyrosine phosphatase buffer (20 mM Tris-Hcl, pH 8.0, 0.75 mM NaCl, 0.5 mM EDTA, 5 mM β-mercaptoethanol, 50% glycerol), 0, 50, 100 or 200 nM sodium lobarate and the substrate [pTyr1146] insulin receptor (1142-1153, Sigma, USA) were added. Then, each of the mixtures was allowed to react at room temperature for 10-30 minutes, and then malachite green-molybdate dye solution (Sigma, USA) was added thereto and reacted at room temperature for 10 minutes. After completion of the reaction with the substrate, the absorbance at 620 nm was measured. […]
Specifically, to 0.5 mg/Ml of PTP-1b, PTPN2, PTPN5, PTPN6, PTPN7 or PTPN13 (Bioneer, Korea) in protein tyrosine phosphatase buffer (20 mM Tris-Hcl, pH 8.0, 0.75 mM NaCl, 0.5 mM EDTA, 5 mM β-mercaptoethanol, 50% glycerol), 0, 50, 100 or 200 nM Lobarin and the substrate [pTyr1146] insulin receptor (1142-1153, Sigma, USA) were added. […] After completion of the reaction with the substrate, the absorbance at 620 nm was measured. […]

Solubility in water = format: physicochemical; conditions: dissolved in water
Procedure: 10 mg (22 umol) of the lobaric acid obtained in Example 1-2 was dissolved in 3 ml of acetone, and 50 ul of 1M NaHCO3 was added thereto, followed by stirring for 1-2 minutes. The solid precipitated on adding the NaHCO3 was filtered out, immediately after which it was completely concentrated by a rotary evaporator. After completion of the concentration, sodium lobarate (<10 mg) could be obtained as a white solid. Then, in order to remove excess salt from the product to increase the purity, the product was analyzed by reverse phase HPLC using Agilent Eclipse XDB-C18 column (4.6×150 mm, USA). The solvent system used in the analysis was composed of line A and line B which supplied 0.1% formic acid-containing water and 0.1% formic acid-containing acetonitrile, respectively. The elution conditions were as follows: 40% to 50% acetonitrile for 5 min; 50% to 80% acetonitrile for 15 min; and 80% to 90% acetonitrile for 10 min. The final purity was 92.1% (see FIG. 1).

| inhibitory activity against TC-PTP (PTPN2) (TC-PTP (PTPN2)) | water solubility (Solubility in water) | Compound |
| --- | --- | --- |
| no inhibitory activity |  | CCCCCc1c(Oc2cc(OC)cc3c2C(=O)OC3(O)CCCC)c(O)cc(O)c1C(=O)O (stereo not drawn) [Lobarin] |
| no inhibitory activity |  | CCC/C=C1/OC(=O)c2c(Oc3c(O)cc(O)c(C(=O)O)c3CCCCC)cc(OC)cc21 [Lobarstin] |
|  | water-soluble | CCCCCc1c2c(cc(O)c1C(=O)[O-])OC(=O)c1c(cc(OC)cc1C(=O)CCCC)O2.[Na+] [sodium lobarate] |
